From PubChem BioAssay AID256 (DTP/NCI, 2004)
“And” between values parts separate entries of the source, which are not always exact repeats. Equal values may be shown once. Toxic doses and inconclusive results are not listed.

Test system: CD2F1 mice, L1210 leukemia ip, survival T/C
Experiment: NCI In Vivo Anticancer Drug Screen. Data for tumor model L1210 Leukemia (intraperitoneal) in CD2F1 (CDF1) mice
Settings: endpoint: mean survival time, higher = longer survival
Summary of the method: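 Implant tumor; dose compound or vehicle; measure endpoint in both groups; report treated divided by control.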

[1] = dose: 100.0 mg/kg/injection, schedule: Q01DX009 (ip), vehicle: saline with Tween-80
[2] = dose: 400.0 mg/kg/injection, schedule: Q01DX009 (ip), vehicle: saline with Tween-80
[3] = dose: 100.0 mg/kg/injection, schedule: Q04DX003 (ip), vehicle: saline with Tween-80
[4] = dose: 200.0 mg/kg/injection, schedule: Q01DX009 (ip), vehicle: saline with Tween-80
[5] = dose: 200.0 mg/kg/injection, schedule: Q04DX003 (ip), vehicle: saline with Tween-80
[6] = dose: 400.0 mg/kg/injection, schedule: Q04DX003 (ip), vehicle: saline with Tween-80
[7] = dose: 100.0 mg/kg/injection, schedule: Q04DX002 (ip), vehicle: saline with Tween-80
[8] = dose: 200.0 mg/kg/injection, schedule: Q04DX002 (ip), vehicle: saline with Tween-80
[9] = dose: 100.0 mg/kg/injection, schedule: Q01DX001 (ip), vehicle: saline with Tween-80
[10] = dose: 25.0 mg/kg/injection, schedule: Q01DX009 (ip), vehicle: saline with Tween-80
[11] = dose: 50.0 mg/kg/injection, schedule: Q04DX002 (ip), vehicle: saline with Tween-80
[12] = dose: 50.0 mg/kg/injection, schedule: Q01DX009 (ip), vehicle: saline with Tween-80

In the case of `CS(=O)(=O)OCCN(CCOS(C)(=O)=O)c1ccc(N=O)cc1`, the T/C (dose: 0.25 mg/kg/injection, schedule: Q01DX009 (ip), vehicle: saline) was 101 % of control, the T/C (dose: 0.5 mg/kg/injection, schedule: Q01DX001 (ip), vehicle: saline) was 113 % of control and the T/C (dose: 0.5 mg/kg/injection, schedule: Q01DX005 (ip), vehicle: saline) was 103 % of control. The T/C (dose: 0.5 mg/kg/injection, schedule: Q01DX009 (ip), vehicle: saline) was 91 % of control, the T/C (dose: 1.0 mg/kg/injection, schedule: Q01DX005 (ip), vehicle: saline) was 114 % of control and the T/C (dose: 1.0 mg/kg/injection, schedule: Q04DX003 (ip), vehicle: saline) was 97 % of control. The T/C (dose: 2.0 mg/kg/injection, schedule: Q01DX001 (ip), vehicle: saline) was 114 % of control, the T/C (dose: 2.0 mg/kg/injection, schedule: Q04DX003 (ip), vehicle: saline) was 97 % of control and the T/C (dose: 7.5 micrograms/kg/injection, schedule: Q03HX024 (ip), vehicle: saline) was 234 % of control. The T/C (dose: 31.3 micrograms/kg/injection, schedule: Q03HX024 (ip), vehicle: saline) was 115 % of control.
For `CC(C(=O)c1ccccc1)C(c1ccccc1)P(=O)(c1ccccc1)c1ccccc1` (centres undefined), the T/C [1] was 102 % of control and the T/C [2] was 104 % of control.
With `O=[N+]([O-])c1cccc(/C=C/C=C/c2ccc(Cl)c(S(=O)(=O)F)c2)c1` the T/C [1] was 100 % of control, the T/C [3] was 100 % of control and the T/C [4] was 94 % of control. The T/C [5] was 88 % of control, the T/C [2] was 97 % of control and the T/C [6] was 90 % of control.
For `CCOS(=O)(=O)CCCCS(=O)(=O)OCC`, the T/C (dose: 10.0 mg/kg/injection, schedule: Q01DX009 (ip), vehicle: Klucel (hydroxypropylcellulose) (HPC)) was 104 % of control, the T/C (dose: 20.0 mg/kg/injection, schedule: Q01DX009 (ip), vehicle: Klucel (hydroxypropylcellulose) (HPC)) was 98 % of control and the T/C (dose: 40.0 mg/kg/injection, schedule: Q01DX009 (ip), vehicle: Klucel (hydroxypropylcellulose) (HPC)) was 107 % of control.
In the case of `O=C(OCC(OC(=O)c1ccccc1)C(OC(=O)c1ccccc1)C(O)C(O)CO)c1ccccc1` (centres undefined) (tested in a mixture with another compound), the T/C [7] was 114 % of control and the T/C [8] was 100 % of control.
In the case of `CCCCCCCCCCCCCCOc1ccc(OCCCCCCCCC)cc1`, the T/C [9] was 94 % of control, the T/C (dose: 200.0 mg/kg/injection, schedule: Q01DX001 (ip), vehicle: saline with Tween-80) was 94 % of control and the T/C (dose: 400.0 mg/kg/injection, schedule: Q01DX001 (ip), vehicle: saline with Tween-80) was 95 % of control.
`CC1=CC(=O)C(C(C)C)CC1=O` (centres undefined) was tested, and the T/C (dose: 6.25 mg/kg/injection, schedule: Q01DX009 (ip), vehicle: saline with Tween-80) was 98 % of control, the T/C (dose: 12.5 mg/kg/injection, schedule: Q01DX009 (ip), vehicle: saline with Tween-80) was 102 % of control and the T/C [10] was 95 % of control.
`CC(C)(C)C1CC[N-]CC1.CC(C)(C)C1CC[N-]CC1.O=[N+]([O-])O.O=[N+]([O-])O.[Pt+2]` was tested, and the T/C [11] was 98 % of control, the T/C [7] was 98 % of control and the T/C [8] was 95 % of control.
With `[Se]=[P+](OC1CCCCC1)OC1CCCCC1` the T/C (dose: 100.0 mg/kg/injection, schedule: Q01DX001 (ip), vehicle: saline) was 90 % of control, the T/C (dose: 200.0 mg/kg/injection, schedule: Q01DX001 (ip), vehicle: saline) was 92 % of control and the T/C (dose: 400.0 mg/kg/injection, schedule: Q01DX001 (ip), vehicle: saline) was 92 % of control.
In the case of `NCC(F)(F)C(F)(F)C(F)(F)CN`, the T/C [12] was 98 % of control, the T/C [1] was 107 % of control and the T/C [4] was 103 % of control.
In the case of `CC(C)c1ccc2ccccc2c1`, the T/C [3] was 91 % of control, the T/C [5] was 87 % of control and the T/C [6] was 86 % of control.
`O=[N+]([O-])c1cccc(N=Nn2cccc2)c1` was tested, and the T/C [10] was 86 % of control, the T/C [12] was 106 % of control and the T/C [9] was 98 % of control. For the same compound, the T/C [1] was 102 % of control.
For `Nc1nc(N)c(N=Nc2ccc(S(=O)(=O)O)cc2)c(N)n1`, the T/C [1] was 94 % of control, the T/C [4] was 94 % of control and the T/C [2] was 98 % of control.
With `Cc1ccc(S(=O)(=O)C[n+]2ccccc2N)cc1` the T/C (dose: 25.0 mg/kg/injection, schedule: Q04DX002 (ip), vehicle: saline with Tween-80) was 102 % of control, the T/C [11] was 95 % of control and the T/C [7] was 93 % of control and 95 % of control.
With `COc1ccc2ccccc2c1C1NC(=O)c2ccccc2N1` (centres undefined) the T/C (dose: 12.5 mg/kg/injection, schedule: Q01DX009 (ip), vehicle: Klucel (hydroxypropylcellulose) (HPC)) was 95 % of control and 102 % of control, the T/C (dose: 25.0 mg/kg/injection, schedule: Q01DX009 (ip), vehicle: Klucel (hydroxypropylcellulose) (HPC)) was 101 % of control and 102 % of control and the T/C (dose: 50.0 mg/kg/injection, schedule: Q01DX009 (ip), vehicle: Klucel (hydroxypropylcellulose) (HPC)) was 105 % of control and 107 % of control. The T/C (dose: 100.0 mg/kg/injection, schedule: Q01DX009 (ip), vehicle: Klucel (hydroxypropylcellulose) (HPC)) was 101 % of control and 104 % of control, the T/C (dose: 200.0 mg/kg/injection, schedule: Q01DX009 (ip), vehicle: Klucel (hydroxypropylcellulose) (HPC)) was 104 % of control and 105 % of control and the T/C (dose: 400.0 mg/kg/injection, schedule: Q01DX009 (ip), vehicle: Klucel (hydroxypropylcellulose) (HPC)) was 119 % of control and 96 % of control.
`CCCc1cc(CCC)n2nc(N)nc2n1` was tested, and the T/C [3] was 96 % of control, the T/C [5] was 94 % of control and the T/C [6] was 94 % of control.
With `CNS(=O)(=O)c1ccc2c(c1)nc(SC)n2C` the T/C [1] was 101 % of control, the T/C [3] was 102 % of control and the T/C [4] was 101 % of control. For the same compound, the T/C [5] was 94 % of control, the T/C [2] was 93 % of control and the T/C [6] was 95 % of control.
For `c1cnc(NCCSSCCNc2ncccn2)nc1`, the T/C [1] was 91 % of control, the T/C [3] was 97 % of control and the T/C [4] was 89 % of control. For the same compound, the T/C [5] was 97 % of control, the T/C [2] was 91 % of control and the T/C [6] was 96 % of control.
In the case of `CN(C)C(=O)Sc1ccc(N(C)C)cc1`, the T/C [8] was 107 % of control and the T/C (dose: 400.0 mg/kg/injection, schedule: Q04DX002 (ip), vehicle: saline with Tween-80) was 107 % of control.
